# Test results published in PubChem BioAssay AID2745 (NMMLSC, 2010).
# Calls of active or inactive are those of the source. How the calls were made is not given here.
# Assay: LAP4-GFP modulation potency in yeast, dose response, cell-based, MLPCN hits, flow cytometry (AID 2745);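 further: yeast exposed to compound for three hours at 30 degrees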
# Conditions: S. cerevisiae LAP4-GFP reporter, flow cytometry fluorescence; at 33 µM (top of the series)
row,SMILES,LAP4-GFP fluorescence (kMESF)
1,O=[N+]([O-])c1cc(CN2CCN(c3ccccc3)CC2)c(O)c2ncccc12,14.7 kMESF (inactive)
2,CN(C)/C=C/C(=O)c1ccc(-c2ccc(Cl)cc2Cl)o1,4.39 kMESF (inactive)
3,Cc1c(NC2=C(Cl)C(=O)N(c3ccccc3)C2=O)c(=O)n(-c2ccccc2)n1C,6.71 kMESF (inactive)
4,CC(C)[C@]1(c2ccc(Cl)cc2)ON(c2ccccc2C(F)(F)F)C1=O,3.43 kMESF (inactive)
5,CN1C(=O)/C(=N\OC(=O)c2cccc3ccccc23)c2ccccc21,7.11 kMESF (inactive)
6,Cc1cccc(N2C(=O)C(Cl)=C(Nc3c(C)n(C)n(-c4ccccc4)c3=O)C2=O)c1C,6.11 kMESF (inactive)
7,COc1ccc(NC2=C(Cl)C(=O)N(CCc3ccccc3)C2=O)cc1,5.81 kMESF (inactive)
8,O=C1ON=C(c2ccc(Cl)cc2)/C1=C/c1ccc(O)cc1,6.72 kMESF (inactive)
9,O/C=c1\ccc2cccc3nc(C(F)(F)F)nc1c23,15.8 kMESF (inactive)
10,Cc1ccnc(N2C(=O)c3cccc4c([N+](=O)[O-])ccc(c34)C2=O)c1,33.2 kMESF (inactive)
11,Cc1ccc(-c2nc(C)sc2CC(=O)Nc2nnc(C)s2)cc1,3.81 kMESF (inactive)
12,C/C(=N\Nc1ncnc2sc(C)c(C)c12)c1ccccn1,-7.63 kMESF (inactive)
13,Nc1ccc2ccc3cccc[n+]3c2c1,10.3 kMESF (inactive)
14,O=C(NOC(=O)c1ccccc1)c1ccccc1,10.6 kMESF (inactive)
15,O=C(NNC(=S)NC(=O)c1ccco1)c1ccc(F)cc1,5.61 kMESF (inactive)
16,Cc1nc2ccc(NC(=O)c3oc4ccc(F)cc4c3C)cc2s1,3.28 kMESF (inactive)
17,CC(=O)Nc1ncnc2c1c(-c1ccc(Cl)cc1)nn2C(C)(C)C,5.09 kMESF (inactive)
18,CCCCCCCCCCCCCCCC[n+]1cccc2ccccc21,1.21 kMESF (inactive)
19,Fc1cccc(Nc2ncnc3c2cnn3-c2ccccc2)c1,5.86 kMESF (inactive)
20,CC(=O)NN1C(=O)/C(=C/c2ccc(Br)o2)SC1=S,2.52 kMESF (inactive)
21,CCOc1ccc(NC2=C(Cl)C(=O)N(Cc3ccccc3)C2=O)cc1,6.11 kMESF (inactive)
22,CN(C)C(=O)Oc1ccnc2cc(Cl)ccc12,2.83 kMESF (inactive)

row,SMILES,LAP4-GFP fluorescence (kMESF)
1,O=C(CSC1=NS(=O)(=O)c2ccccc21)Nc1ccccc1,7.82 kMESF (inactive)
2,O=C1C=C(Nc2ccc(Cl)cc2)C(=O)N1c1ccc(Cl)cc1,3.03 kMESF (inactive)
3,CC(Oc1cc2oc(=O)c3c(c2cc1Cl)CCC3)C(=O)NCCN1CCOCC1 (stereo not given),2.43 kMESF (inactive)
4,Cc1ccccc1OCC(=O)NNC(=S)NC(=O)c1ccco1,6.11 kMESF (inactive)
5,Cc1ccccc1[C@]1(C)ON(c2ccccc2C(F)(F)F)C1=O,3.24 kMESF (inactive)
6,O=C1C(=O)c2ccccc2-c2ccccc21,5.27 kMESF (inactive)
7,Cc1nn2c(NCc3ccccn3)c3c(nc2c1-c1ccccc1)CCC3,7.76 kMESF (inactive)
8,Cc1cc(C)c(OCC(=O)Nc2nc(-c3ccccn3)cs2)c(C)c1,5.78 kMESF (inactive)
9,CC[C@]1(c2ccccc2C)ON(c2ccccc2C(F)(F)F)C1=O,3.33 kMESF (inactive)
10,Oc1c(C(Nc2cccc(C(F)(F)F)c2)c2ccncc2)ccc2cccnc12 (stereo not given),11.8 kMESF (inactive)
11,CCCc1cc(N2CCN(c3ccccn3)CC2)n2nc(C)c(-c3ccccc3)c2n1,5.75 kMESF (inactive)
12,O=C(NC(=S)Nc1ccc2oc(=O)ccc2c1)c1cccc(Cl)c1,3.47 kMESF (inactive)
13,COC(=O)c1cc(N2C(=O)C3C(C2=O)C2(C)C=CC3(C)O2)ccc1Cl (stereo not given),8.52 kMESF (inactive)
14,O=S(=O)(/N=C(\Sc1ccc(Cl)cc1)c1ccccc1)c1ccccc1,12.4 kMESF (inactive)
15,Cc1ccc(S(=O)(=O)N2CC(C(=O)O)=CC[C@H]2c2ccc(Cl)cc2)cc1,4.05 kMESF (inactive)
16,CC1=C/C(=N\OS(=O)(=O)c2ccccc2)C(C)=CC1=O,4.1 kMESF (inactive)
17,COc1ccccc1-c1nc2s/c(=C\c3cccs3)c(=O)n2n1,5.46 kMESF (inactive)
18,CC(C)(C)c1cc(C(c2cccnc2)N2CCN(CCO)CC2)cc(C(C)(C)C)c1O (stereo not given),7.26 kMESF (inactive)
19,O=C(COc1ccccc1)N1CCN(c2ncnc3c2cnn3-c2ccccc2)CC1,3.38 kMESF (inactive)
20,C[C@@]12C(=O)OC(=O)[C@]1(C)C1CCC2O1,9.15 kMESF (inactive)
21,O=C(O)c1ccc2c(c1)C(=O)/C(=C/c1ccccc1)C2=O,3.53 kMESF (inactive)
22,COc1cc(/C=C/[N+](=O)[O-])ccc1O,7.18 kMESF (inactive)

row,SMILES,LAP4-GFP fluorescence (kMESF)
1,CCC(=O)Nc1ccc(NC(=O)c2cc3ccccc3o2)cc1,3.31 kMESF (inactive)
2,CN(C)c1ccc(/C=C/c2cc[n+](C)cc2)cc1,1.33 kMESF (inactive)
3,O=C(CS(=O)c1ccccc1[N+](=O)[O-])Oc1ccc(Br)cc1 (stereo not given),21.8 kMESF (inactive)
4,O=C(Oc1oc(-c2ccco2)nc1C=Nc1ccccc1)c1ccco1,23.7 kMESF (inactive)
5,O=C1C=CC(=O)N1c1ccc(Sc2ccc([N+](=O)[O-])cc2)cc1,5.47 kMESF (inactive)
6,CC1(C(=O)NC(=S)NNC(=O)c2ccncc2)CCCCC1,4.99 kMESF (inactive)
7,O=C(O)C1Sc2[nH]c(=O)sc2C2c3cc(Br)ccc3OC(=O)C12 (stereo not given),5.82 kMESF (inactive)
8,COc1ccccc1[C@@]1(C)ON(c2ccccc2C(F)(F)F)C1=O,7.08 kMESF (inactive)
9,COc1ccc(N=Cc2nc(-c3ccccc3)oc2OC(=O)c2ccccc2)cc1,4.09 kMESF (inactive)
10,O=C(Nc1ccccc1)ON=C1CCCC1,4.79 kMESF (inactive)
11,CCN(CC)c1ccc(/C=C2\C(=O)c3ccc(C(=O)O)cc3C2=O)cc1,392 kMESF (inactive)
12,CC(=O)Oc1ccc(N2C(=O)C3C4C=CC(O4)C3C2=O)cc1 (stereo not given),6.57 kMESF (inactive)
13,Oc1ccc(COCc2ccccc2)c2cccnc12,20.4 kMESF (inactive)
14,CC(=O)Oc1oc(-c2ccccc2)nc1C=Nc1ccc(N(C)C)cc1,7.39 kMESF (inactive)
15,Cc1sc(/C=C2\C(=O)ON=C2c2ccccc2)cc1Br,2.73 kMESF (inactive)
16,Oc1c(Br)cc(Br)cc1C=Nc1ccc2[nH]ncc2c1,13.1 kMESF (inactive)
17,CCc1nc2ccccc2c(=O)n1NC(=O)c1c(O)c2cccc3c2n(c1=O)CCC3,3.04 kMESF (inactive)
18,Cc1[nH]n(-c2ncc(-c3ccccc3)s2)c(=O)c1C(c1ccc(Cl)cc1)C(C#N)C#N (stereo not given),8.02 kMESF (inactive)
19,Oc1ccc(CNc2ccccc2)c2cccnc12,3.88 kMESF (inactive)
20,CCN(CC)C(=S)SSC(=S)N(CC)CC,20.4 kMESF (inactive)
21,O=C(/C=C/Sc1ncn[nH]1)c1ccc(Cl)cc1,15.9 kMESF (inactive)
